The values below come from patent EP4748837A1, “AROMATIC AMIDE DERIVATIVE, AND PREPARATION METHOD THEREFOR AND USE THEREOF” (Zhejiang Hisun Pharmaceutical Co., Ltd., priority 2023, dated 2025).

Series [1] concerns HT-29 cells. The series can be described thus: Inhibition of HT-29 cell proliferation (CellTiter-Glo cell viability). The series is classed as cell-based. The following applies: Homo sapiens; HT-29 cells (TP53 R273H mutation), 120 hours culture with compound; read-out: IC50. Summed up:
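HT-29 cells (TP53 R273H) in McCOY's 5A with 10% FBS, seeded 1000 cells/well overnight, then exposed to compound at 1000 nM–0.015 nM final for 120 hours at 37°C. Viability by CellTiter-Glo luminescence versus 0.3% DMSO control; IC50 by nonlinear regression of log concentration–inhibition.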

Series [2] can be described thus: Pharmacokinetic testing in mice after intragastric administration. The series is classed as in vivo. The following applies: ICR mice; for area under the curve (in words) / pharmacokinetic properties (in words) / plasma concentration (in words): oral 10 mg/kg, conclusion; for AUC(0-inf) / half-life / Cmax: male, mouse, oral administration 10 mg/kg, plasma; for AUC(0-inf): read-out: Area under the curve AUC0-∞; for half-life: read-out: Half-life period T1/2 (converted); for Cmax: read-out: Plasma concentration Cmax. Here is the method:
ICR mice were taken as test animals, and intragastrically administered with a control compound AMG650 and compounds 47 and 53 of the present invention, and then drug concentrations in plasma at different moments were determined by an LC/MS/MS method, so as to study pharmacokinetic characteristics of the compounds of the present invention in the mice.
Control compound AMG650, and Compounds 47 and 53.
ICR mice, male, 20-22 g, purchased from Vital River Laboratory Animal Technology Co., Ltd.
A proper amount of to-be-tested compound was weighed, proper amounts of DMA, 30% HS-15 and Saline were added in sequence, and the mixture was well mixed by ultrasonic vortex to prepare 1 mg/mL drug preparations respectively, wherein […]: 30% HS-15: Saline=5: 5: 90 (v: v: v).
ICR mice in each to-be-tested compound injection group (9 mice in each group) were fasted overnight and then intragastrically administered with the compound (PO, an administration dosage of the compound was 10 mg/kg and an administration volume of the compound was 10 mL/kg), and were fed 4 hours after administration.
0.25 hours, 0.5 hours, 1 hour, 2 hours, 4 hours, 6 hours, 8 hours and 24 hours before and after administration, about […] of blood was collected through an orbit, and a complete blood sample was placed in an EDTA-K2-containing anticoagulation tube. The collected blood samples were placed on ice, and plasma was centrifugally separated (centrifugation conditions: 1500 g, 10 minutes). The collected plasma was stored at -40°C - -20°C before analysis.
A content of the to-be-tested compound in the plasma of the mice after intragastric administration was determined by LC-MS/MS.

For series [3], the system named is OVCAR-3 human ovarian adenocarcinoma tumor mass. The experiment in a line: Pharmacodynamic testing in subcutaneous OVCAR-3 xenograft model. It is filed as in vivo, BALB/c nude mice. The following applies: for inhibitory effect on tumor growth (in words): 8 mg/kg, compared with the solvent control group and AMG650; for TGI% / Relative tumor volume (x±S) / Tumor volume (x±S): 35 days after administration, 8 mg/kg po QD, BALB/c nude mice; for Relative tumor volume (x±S) / Tumor volume (x±S): mean value ± standard error; for Tumor volume (x±S): in mm³ (unit assumed). Here is the method: Anti-tumor effects and Safeties of the Compounds 47 and 53 of the present invention in a BALB/c nude mouse animal model subjected to subcutaneous xenotransplantation of OVCAR-3 human ovarian adenocarcinoma tumor mass were evaluated.
BALB/c; nude mice, female, 6-7 weeks old, purchased from Jiangsu Gempharmatech Biotechnology Co., Ltd.
Mice in a solvent control group were given DMA: CrEL: 5%GS=10: 10: 80 (v: v: v). AMG650: a proper amount of AMG-650 was weigned, proper amounts of DMA, CrEL and 5% GS were added in sequence, and the mixture was well mixed by ultrasonic vortex to prepare 0.8 mg/mL drug preparations respectively, wherein DMA: CrEL : 5% GS=10: 10: 80 (v: v: v).
Compound 47: a proper amount of Compound 47 was added with proper amounts of DMA, CrEL and 5% GS in sequence, and evenly mixed by ultrasonic vortex to prepare 0.8 mg/mL drug preparations respectively, wherein DMA, CrEL and 5% GS=10: 10: 80 (v: v: v).
Compound 53: a proper amount of Compound 53 was weighed, proper amounts of DMA, CrEL and 5% GS were added in sequence, and the mixture was well mixed by ultrasonic vortex to prepare 0.8 mg/mL drug preparations respectively, wherein DMA: CrEL : 5% GS=10: 10: 80 (v: v: v).
An appropriate OVCAR-3 tumor-bearing animal was selected, and a 1 mm×1 mm×1 mm OVCAR-3 tumor mass was acquired aseptically and placed into normal saline for later use, which was used for subcutaneous tumor inoculation in a right side of back of the BALB/c nude mice.
About 1 mm×1 mm×1 mm OVCAR-3 tumor mass was subcutaneously inoculated in the right side of back of the female BALB/c nude mice. When an average tumor volume reached about 100-250 mm^3, the mice were randomly grouped based on tumor size, with 6 mice in each group.
Animals in each group were given the test compound once per day according to an animal weight at a fixed time every day by oral administration (po), the animals started to be administered with the test compound for the first time on the day of grouping for 35 consecutive days, and the animal weight was recorded every day.
The 1st group (G1) was a solvent control group; and
The 2nd-4th groups […] were orally administered with AMG-650, Compound 47 and Compound 53 at an administration dosage of 8 mg/kg once per day (QD).

Take `CCS(=O)(=O)Nc1ccc(C(=O)Nc2ccc(-c3ncccn3)c(OCC(F)(F)F)c2)c(N2CCC3(CC2)CC3)c1` [Example 53, 4-(ethylsulfonamido)-N-(4-(pyrimidin-2-yl)-3-(2,2,2-trifluoroethoxy)phenyl)-2-(6-azaspiro[2.5]octan-6-yl)benzamide]: the IC50 in series [1] amounted to 6.8 nM. Also, in series [2], the “area under the curve (in words)” value was “large area under the curve”, the “pharmacokinetic properties (in words)” value is “good pharmacokinetic properties”, the “plasma concentration (in words)” value is reported as “high plasma concentration” and the AUC(0-inf) stood at 83700 ng·h/mL. Moreover, in series [2], the half-life was 12.1 h and the Cmax stood at 5790 ng/mL. In addition, in series [3], the “inhibitory effect on tumor growth (in words)” value is on record as “more significant inhibitory effect on tumor growth”, the TGI% turned out to be 98.0%, the “Relative tumor volume (x±S)” value is on record as 0.10±0.04 and the “Tumor volume (x±S)” value turned out to be 21±9.

Consider `CCS(=O)(=O)Nc1ccc(C(=O)Nc2ccc(-c3ncn(C)n3)c(OCC(F)(F)F)c2)c(N2CCC3(CC2)CC3)c1` [Example 47, 4-(ethylsulfonamido)-N-(4-(1-methyl-1H-1,2,4-triazol-3-yl)-3-(2,2,2-trifluoroethoxy)pheny 1)-2-(6-azaspiro[2.5]octan-6-yl)benzamide], for which the IC50 in series [1] amounted to 0.54 nM. In addition, in series [2], the “area under the curve (in words)” value is on record as “large area under the curve”, the “pharmacokinetic properties (in words)” value is given as “good pharmacokinetic properties”, the “plasma concentration (in words)” value is “high plasma concentration” and the AUC(0-inf) came to 44100 ng·h/mL. In series [2], the half-life is 5.45 h and the Cmax was found to be 3500 ng/mL. In series [3], the “inhibitory effect on tumor growth (in words)” value is “more significant inhibitory effect on tumor growth”, the TGI% is 95.5%, the “Relative tumor volume (x±S)” value turned out to be 0.22±0.11 and the “Tumor volume (x±S)” value is given as 40±20.
